Assay results reported in PMC10426190 (Breast Cancer Research : BCR, 2023).

System: E2-induced (ER target) genes in MCF7
Test: Gene expression analysis by RNA-sequencing in MCF7 with E2 stimulation
Assay type: cell-based, human
Conditions: MCF7; 1 nM E2 ± 1 μM compound, 24 h
Experimental: MCF7 were cultured in hormone deprivation media (with 10% charcoal-stripped FBS) for at least 3 days before assay. Trypsinized cells were seeded in a 12-well plate, stimulated with 1 nM β-estradiol (E2), and treated with/without 1 μM compounds for 24 h. Total RNA was extracted using the TRIzol reagent according to the manufacturer’s protocol. RNA purity and quantification were evaluated using the NanoDrop 2000 spectrophotometer (Thermo Scientific, USA). RNA integrity was assessed using the Agilent 2100 Bioanalyzer (Agilent Technologies, Santa Clara, CA, USA). Then the libraries were constructed using TruSeq Stranded mRNA LT Sample Prep Kit (Illumina, San Diego, CA, USA) according to the manufacturer’s instructions. The transcriptome sequencing and analysis were conducted by OE Biotech Co., Ltd. (Shanghai, China). The libraries were sequenced on an Illumina HiSeq X Ten platform and 150 bp paired-end reads were generated. […] Raw data (raw reads) of FASTq format were firstly processed using Trimmomatic and the low-quality reads were removed to obtain the clean reads. […] The clean reads were mapped to the human genome (GRCh38) using HISAT2 [27]. FPKM [28] of each gene was calculated using Cufflinks, and the read counts of each gene were obtained by HTSeqcount. Differential expression analysis was performed using the DESeq (2012) R package.
MCF7 with hormone-deprived pre-treatment were administrated ER ligands or not present with 1 nM E2 stimulation for 24 h incubation in a 12-well plate. Total mRNA was isolated from treated cells and sequenced on an Illumina HiSeq X Ten platform. FPKM of each gene was calculated using Cufflinks and Differential expression genes analysis by using the DESeq (2012) R package. […] T47D EFM-19 and HCC1500 cells were grown in RPMI media supplemented with 10% charcoal-stripped FBS for 14 days and then treated with ER antagonist (1 μM) or DMSO in the presence E2 (1nM) stimulation for 24 h before RNA isolation and gene expression analysis as described in methods. […] The uteruses were harvested 24 h after the final doses and stained by toluidine blue. Endometrial height was assessed from the basement membrane to the luminal border (scale bar in green lines: 200 μm), Arrows indicate the uterine epithelium (e).

`C[C@]12CC[C@@H]3c4ccc(O)cc4C[C@@H](CCCCCCCCC[S+]([O-])CCCC(F)(F)C(F)(F)F)[C@H]3[C@@H]1CC[C@@H]2O` (some centres unmarked) [Fulvestrant] was tested, and the ACTG2 expression was 1.20 FPKM, the ADCY1 expression was 6.76 FPKM and the AGR3 expression was 2.46 FPKM. For the same compound, the AMZ1 expression was 0.77 FPKM, the ANLN expression was 18.71 FPKM and the ARHGAP36 expression was 0.28 FPKM. It also gave an ASCL1 expression of 0.54 FPKM, an ASF1B expression of 26.04 FPKM and an ASMTL-2 expression of 1.41 FPKM. For the same compound, the ATAD2 expression was 23.77 FPKM, the ATRNL1 expression was 0.05 FPKM and the AURKB expression was 19.26 FPKM. For the same compound, the BIRC5 expression was 23.46 FPKM, the BLM expression was 2.45 FPKM and the BMPER expression was 0.11 FPKM. For the same compound, the BRCA1 expression was 2.96 FPKM, the BRCA2 expression was 2.04 FPKM and the BRIP1 expression was 17.34 FPKM. The BUB1B expression was 8.27 FPKM, the C1orf226 expression was 3.74 FPKM and the C5AR2 expression was 0.51 FPKM. For the same compound, the CA2 expression was 87.89 FPKM, the CA12 expression was 18.70 FPKM and the CALCR expression was 0.77 FPKM. It also gave a CAV1 expression of 5.48 FPKM, a CCN5 expression of 22.35 FPKM and a CCNA2 expression of 15.79 FPKM. The CCNE2 expression was 4.70 FPKM, the CD99-2 expression was 1.09 FPKM and the CDC6 expression was 4.59 FPKM. For the same compound, the CDC25A expression was 1.67 FPKM, the CDC45 expression was 5.51 FPKM and the CDCA3 expression was 6.06 FPKM. The CDCA4 expression was 12.74 FPKM, the CDCA5 expression was 11.52 FPKM and the CDCA7 expression was 1.84 FPKM. For the same compound, the CDH26 expression was 0.21 FPKM, the CDK1 expression was 14.26 FPKM and the CDT1 expression was 21.42 FPKM. The CENPI expression was 2.93 FPKM, the CENPU expression was 4.96 FPKM and the CHAF1B expression was 1.52 FPKM. The CHEK1 expression was 2.32 FPKM, the CKS1B expression was 46.61 FPKM and the CLSPN expression was 1.80 FPKM. It also gave a COL12A1 expression of 1.73 FPKM, a CXCL12 expression of 1.70 FPKM and a DDIAS expression of 2.63 FPKM. It also gave a DHRSX-2 expression of 0.11 FPKM, a DKK1 expression of 26.72 FPKM and a DNA2 expression of 2.77 FPKM. For the same compound, the DPYSL5 expression was 0.36 FPKM, the DSCC1 expression was 4.38 FPKM and the DTL expression was 1.38 FPKM. It also gave an E2F1 expression of 7.00 FPKM, an E2F2 expression of 1.27 FPKM and an E2F7 expression of 2.55 FPKM. For the same compound, the E2F8 expression was 3.66 FPKM, the ELOVL2 expression was 3.33 FPKM and the EME1 expression was 3.73 FPKM. It also gave an ERCC6L expression of 1.34 FPKM, an ESCO2 expression of 2.24 FPKM and an ESPL1 expression of 7.73 FPKM. It also gave an EXO1 expression of 2.15 FPKM, an FAM20A expression of 0.46 FPKM and an FAM111B expression of 2.82 FPKM. The FANCA expression was 9.92 FPKM, the FANCD2 expression was 5.42 FPKM and the FANCI expression was 16.43 FPKM. It also gave an FEN1 expression of 24.35 FPKM, an FIGNL1 expression of 2.36 FPKM and an FKBP4 expression of 43.52 FPKM. For the same compound, the GATA4 expression was 0.00 FPKM, the GFRA1 expression was 26.23 FPKM and the GINS1 expression was 8.52 FPKM. For the same compound, the GINS2 expression was 8.09 FPKM, the GJA1 expression was 0.06 FPKM and the GLA expression was 31.47 FPKM. The GP1BB expression was 0.79 FPKM, the GPR68 expression was 0.13 FPKM and the GPRIN1 expression was 2.95 FPKM. For the same compound, the GREB1 expression was 3.94 FPKM, the H2AX expression was 89.38 FPKM and the HBB expression was 0.00 FPKM. It also gave an HELLS expression of 2.89 FPKM, an HEY2 expression of 0.43 FPKM and an HMGB2 expression of 118.94 FPKM. It also gave an IGFBP4 expression of 26.82 FPKM, an IGSF1 expression of 3.55 FPKM and an ITGA2B expression of 0.30 FPKM. It also gave a KIF11 expression of 11.20 FPKM, a KIF18B expression of 4.13 FPKM and a KIFC1 expression of 12.36 FPKM. For the same compound, the KLK11 expression was 1.75 FPKM, the KNL1 expression was 3.41 FPKM and the KNTC1 expression was 5.81 FPKM. For the same compound, the LHX2 expression was 1.30 FPKM, the LIG1 expression was 19.47 FPKM and the LMNB1 expression was 49.03 FPKM. For the same compound, the MAD2L1 expression was 6.32 FPKM, the MCM2 expression was 24.98 FPKM and the MCM3 expression was 30.18 FPKM. For the same compound, the MCM4 expression was 38.73 FPKM, the MCM5 expression was 9.71 FPKM and the MCM6 expression was 18.69 FPKM. The MCM7 expression was 65.17 FPKM, the MCM10 expression was 2.51 FPKM and the MELK expression was 9.66 FPKM. It also gave an MKI67 expression of 19.11 FPKM, an MYB expression of 3.86 FPKM and an MYBL1 expression of 0.96 FPKM. The MYBL2 expression was 29.90 FPKM, the NCAPG2 expression was 15.05 FPKM and the NCAPG expression was 5.76 FPKM. It also gave an NPY1R expression of 3.20 FPKM, an ORC1 expression of 2.67 FPKM and an ORC6 expression of 5.57 FPKM. The PAQR4 expression was 9.57 FPKM, the PBK expression was 14.24 FPKM and the PCLAF expression was 28.12 FPKM. The PCNA expression was 48.34 FPKM, the PDZK1 expression was 0.47 FPKM and the PGR expression was 0.52 FPKM. The PKIB expression was 16.14 FPKM, the PKMYT1 expression was 9.90 FPKM and the POLA1 expression was 2.69 FPKM. For the same compound, the POLA2 expression was 4.51 FPKM, the POLD1 expression was 11.19 FPKM and the POLE2 expression was 2.45 FPKM. It also gave a POLE expression of 11.56 FPKM, a POLQ expression of 2.64 FPKM and a PRIM1 expression of 7.88 FPKM. It also gave a PRSS23 expression of 49.30 FPKM, an RAB31 expression of 6.58 FPKM and an RAD51AP1 expression of 5.24 FPKM. For the same compound, the RAD51 expression was 3.28 FPKM, the RAD54L expression was 3.44 FPKM and the RAMP3 expression was 0.40 FPKM. It also gave an RAPGEFL1 expression of 2.18 FPKM, an RBL1 expression of 2.06 FPKM and an RECQL4 expression of 10.79 FPKM. The RERG expression was 2.17 FPKM, the RET expression was 1.74 FPKM and the RFC2 expression was 14.47 FPKM. For the same compound, the RFC3 expression was 3.82 FPKM, the RFC4 expression was 10.05 FPKM and the RNASEH2A expression was 24.71 FPKM. For the same compound, the RRM1 expression was 19.08 FPKM, the RRM2 expression was 24.81 FPKM and the RUBCNL expression was 0.10 FPKM. For the same compound, the SDK2 expression was 0.25 FPKM, the SFXN2 expression was 7.17 FPKM and the SHCBP1 expression was 2.87 FPKM. The SKA3 expression was 4.69 FPKM, the SLC6A14 expression was 8.71 FPKM and the SMC2 expression was 6.16 FPKM. The SPC24 expression was 6.59 FPKM, the SPC25 expression was 6.79 FPKM and the STC2 expression was 28.34 FPKM. For the same compound, the TACC3 expression was 19.06 FPKM, the TCF19 expression was 6.28 FPKM and the TCOF1 expression was 9.75 FPKM. For the same compound, the TGM2 expression was 0.56 FPKM, the TICRR expression was 3.71 FPKM and the TK1 expression was 42.16 FPKM. For the same compound, the TMEM26 expression was 0.84 FPKM, the TMEM164 expression was 6.22 FPKM and the TONSL expression was 9.44 FPKM. For the same compound, the TOP2A expression was 29.21 FPKM, the TP73 expression was 1.03 FPKM and the TRIP13 expression was 6.92 FPKM. It also gave a TUBA1B expression of 473.72 FPKM, a TUBB expression of 230.78 FPKM and a TYMS expression of 25.13 FPKM. For the same compound, the UBE2C expression was 32.42 FPKM, the UBE2T expression was 45.52 FPKM and the UHRF1 expression was 6.71 FPKM. For the same compound, the UNG expression was 29.02 FPKM, the WDHD1 expression was 4.38 FPKM and the WDR62 expression was 5.55 FPKM. It also gave a WDR76 expression of 1.69 FPKM, an XRCC2 expression of 2.48 FPKM and an XRCC3 expression of 5.83 FPKM. The ZGRF1 expression was 1.75 FPKM and the ZNF367 expression was 4.18 FPKM.
